Source: patent US7285392B2, “Methods for identifying active compounds” (Biovitrum AB, priority 2003, dated 2007)

Tests used:
[1] = molecular target: T1, GH receptor interaction with other transcription factors (Homo sapiens, UniProt P10912); assay: Electrophoretic mobility shift assays, GH-receptor transfected cells (summary); format: cell-based; conditions: treatment with BVTA
T1 construct: Cells were transfected with human full-length GH-receptor (pMB1288, 2 μg/μl); expressed in transfected cells; host or cells: WRL-68 (human fetal hepatic cell line), plasmid pMB1288
T1 sequence (P10912 19-638): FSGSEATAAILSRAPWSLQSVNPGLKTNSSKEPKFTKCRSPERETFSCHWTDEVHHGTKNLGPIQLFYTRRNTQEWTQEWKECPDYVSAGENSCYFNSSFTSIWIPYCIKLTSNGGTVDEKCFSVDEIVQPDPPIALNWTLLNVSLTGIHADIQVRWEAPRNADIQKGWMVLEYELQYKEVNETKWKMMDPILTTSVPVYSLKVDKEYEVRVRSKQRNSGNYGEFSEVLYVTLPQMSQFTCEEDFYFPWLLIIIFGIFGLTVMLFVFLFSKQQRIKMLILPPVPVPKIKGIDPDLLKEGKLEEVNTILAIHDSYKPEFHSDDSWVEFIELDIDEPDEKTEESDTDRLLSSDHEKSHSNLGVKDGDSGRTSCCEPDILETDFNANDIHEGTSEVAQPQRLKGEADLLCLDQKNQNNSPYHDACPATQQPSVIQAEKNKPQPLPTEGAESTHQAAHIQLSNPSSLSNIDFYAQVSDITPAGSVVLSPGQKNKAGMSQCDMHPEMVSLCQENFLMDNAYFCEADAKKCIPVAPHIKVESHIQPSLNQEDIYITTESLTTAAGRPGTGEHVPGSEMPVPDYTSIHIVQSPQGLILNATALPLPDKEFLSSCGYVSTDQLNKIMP
Description: Electrophoretic Mobility Shift Assay: Electrophoretic Mobility Shift Assay (EMSA) is a method used to investigate protein-DNA interactions. A DNA probe with a known sequence is end-labeled with ^33P-ATP and then incubated with nuclear extracts. Proteins that bind specifically to the DNA-probe will reduce the mobility of the complex when separated on a non-denaturing poly acryl-amid gel and a shifted band can be seen. To identify proteins bound to the DNA-probe, an antibody can be added to the nuclear extract before incubation with the DNA-probe. If the antibody recognizes a protein that binds to the DNA, the mobility of the complex will be reduced even further and cause a supershift.

[2] = tested on: protein interactions with GHRE DNA probe; assay: EMSA with GHRE DNA probe, nuclear extracts of GHR-transfected and non-transfected WRL-68 cells; format: cell-based, human
Description: (§1) Cell culture: WRL-68 cells, a human fetal hepatic cell-line, were cultured in EMEM medium with NaHCO3 (Statens Veterinärmedicinska Anstalt), supplemented with 10% fetal bovine serum (FBS), 2% L-Glutamine, 1% Pyruvate and 1% Non essential amino acids (NEA), all from GIBCO. The cells were sub-cultivated twice weekly by trypsination to maintain a cell density of approximately 80%.
Transfection: Cells were transfected with human full-length GH-receptor (pMB1288, 2 μg/μl) by using DOTAP Liposomal Transfection Reagent (Roche), according to manufacturers manual. With this reagent a cationic liposome-mediated transfection method (lipofection) is used. T75 flasks with WRL-68 cells were transfected with 10 μg DNA for each flask. 5 μl (10 μg) DNA was diluted with 250 μl OPTIMEM1 medium (GIBCO) and mixed gently with 75 μl DOTAP reagent diluted in 175 μl OPTIMEM1 medium. The mixture was incubated for 10 minutes and then mixed gently with 10 ml OPTIMEM1 medium. Cells were washed once and then incubated for 4 hours with the DNA/DOTAP transfection mix, which was then changed to fresh culture medium. Cells were re-seeded into new culture dishes the following day.
(§2) Stimulation: Cells were stimulated two days after transfection at a confluence of approximately 80%. […]
(§3) Extraction of nuclear proteins: To extract the proteins from the nuclei, the nuclear pellets were re-suspended in 2×lysis buffer with protease and phosphatase inhibitors (100 mM HEPES, pH 7.6, 300 mM NaCl, 10 mM EDTA (GIBCO), 2% Triton X-100 (Sigma), 0.2 mM PMSF, 0.2 mM sodium orto-vanadate, 2 nM okadaic acid, 1×complete), or EMSA buffer with inhibitors (20 mM Tris pH 8.0, 1.5 mM MgCl2, 0.2 mM EDTA, 25% glycerol, 0.5 mM PMSF, 0.2 mM sodium ortho-vanadate, 2 nM okadaic acid, 1×complete protease inhibitor), depending on whether the samples should also be used in electrophoresis mobility shift assays (EMSA) or not. For an optimal protein extraction, three different methods were evaluated. […] Optimal extraction was evaluated by Western blot and protein concentration determination as described below. […]

GH-inducible mRNA = GH-inducible mRNA level; format: cell-based
[3] = tested on: protein interactions with AP2 DNA probe; assay: EMSA with AP2 DNA probe, nuclear extracts of GHR-transfected WRL-68 cells; format: cell-based, human; conditions: stimulated
Description: as §1
(§4) Transfection: Cells were transfected with human full-length GH-receptor (pMB1288, 2 μg/μl) by using DOTAP Liposomal Transfection Reagent (Roche), according to manufacturers manual. With this reagent a cationic liposome-mediated transfection method (lipofection) is used. […]
(§5) Extraction of nuclear proteins: To extract the proteins from the nuclei, the nuclear pellets were re-suspended in 2×lysis buffer with protease and phosphatase inhibitors (100 mM HEPES, pH 7.6, 300 mM NaCl, 10 mM EDTA (GIBCO), 2% Triton X-100 (Sigma), 0.2 mM PMSF, 0.2 mM sodium orto-vanadate, 2 nM okadaic acid, 1×complete), or EMSA buffer with inhibitors (20 mM Tris pH 8.0, 1.5 mM MgCl2, 0.2 mM EDTA, 25% glycerol, 0.5 mM PMSF, 0.2 mM sodium ortho-vanadate, 2 nM okadaic acid, 1×complete protease inhibitor), depending on whether the samples should also be used in electrophoresis mobility shift assays (EMSA) or not. For an optimal protein extraction, three different methods were evaluated. […]

[4] = tested on: protein interactions with OCT1 DNA probe; assay: EMSA with OCT1 DNA probe, nuclear extracts of WRL-68 cells; format: cell-based, human; conditions: stimulated
Description: as §1, §4, §5

[5] = tested on: AP1 transcription factor binding to AP1 DNA probe; assay: EMSA with AP1 DNA probe (control), nuclear extracts of non-transfected WRL-68 cells; format: cell-based, human; conditions: stimulated
Description: as §1, §2, §3

[6] = tested on: protein-DNA binding to GHRE DNA probe; assay: EMSA with GHRE DNA probe, HX rat liver nuclear extracts; design: species or system Sprague Dawley rat; conditions: HX rats stimulated with hGH vs control animals
Description: (§6) Nuclear and cytosolic fractions were prepared from hypophysectomized Sprague Dawley rat livers (ethical license N176/02). The rats had minipumps implanted at 5 weeks of age for administration of hGH. Control animals were not stimulated and thus completely GH-deficient while GH-animals were stimulated continuously with hGH 0.12 mg/kg/day for five days. Animals were anaesthetized and livers were cut out and placed in ice-cold PBS. Livers were then cut into smaller pieces and transferred to 8 ml ice-cold hypotonic buffer with protease and phosphatase inhibitors and were allowed to swell on ice for 10 minutes. […]
as §5

[7] = tested on: protein-DNA interaction with AP2 DNA probe; assay: EMSA with AP2 DNA probe, HX rat liver nuclear extracts; design: species or system Sprague Dawley rat; conditions: hGH stimulated animals compared to control animals
Description: as §6, §5

[8] = tested on: protein-DNA binding to OCT1 DNA probe; assay: EMSA with OCT1 DNA probe, HX rat liver nuclear extracts; design: species or system Sprague Dawley rat; conditions: HX rats stimulated with hGH vs control animals
Description: as §6, §5

Molecule	interaction of GH receptor with other transcription factors [1]	protein-DNA interaction in top shifted band, GHRE probe ([2]; GHR-transfected WRL-68 cells stimulated with BVTA)	effect on GHRE top weak band ([2]; non-transfected WRL-68 cells, stimulated)	GH-inducible mRNA (GH-inducible mRNA)	protein-DNA interaction, top specific band, AP2 probe [3]	protein-DNA interaction, top specific band, OCT1 probe [4]	effect on AP1 shifted band [5]	protein-DNA binding, GHRE probe, hGH stimulation [6]	protein-DNA binding, AP2 probe, hGH stimulation [7]	effect of stimulation on shifted bands, GHRE probe ([2]; both GHR-transfected and non-transfected WRL-68 cells)	protein-DNA binding, OCT1 probe, hGH stimulation [8]
Cc1ccc(S(N)(=O)=O)cc1NC(=O)c1ccc(Br)o1 [BVTA, N-[5-(aminosulfonyl)-2-methylphenyl]-5-bromo-2-furamide]	down regulated	disrupted	no effect	decrease	broke the protein-DNA interaction	decreased	no effects				
hGH: human growth hormone (Genotropin, Pharmacia)					no effects	No effects	no effects	did not show any differences	No difference in protein-DNA binding	No effect	did not show any differences
